# US20150148383A1, “Methods for Inhibiting or Reversing Epiretinal Membrane Formation” (Regenerative Research Foundation, priority 2013, published 2015)
# Experiments:
# [1] = test system: Adult human RPE; experiment: Oxidative stress analysis: TBHP-induced TIMP-3 expression; conditions: 500 μM TBHP 2 hours daily; presence vs absence of nicotinamide; quantitative PCR
# [2] = test system: human RPE cells; experiment: ZO-1 tight junction protein immunostaining; assay type: cell-based
# Method: Cells were fixed with 4% paraformaldehyde for 15 minutes, permeabilized with 0.2% Triton in PBS, blocked with 1% BSA for 30 minutes. Primary antibodies were used at 1:100 dilution in PBS. The corresponding Alexafluor 647 secondary antibodies were used for the respective primary antibody and imaged on a Zeiss Observer.D1 fluorescent microscope.
# [3] = test system: fibroblastic cultures derived from RPE; experiment: Reversal of epithelial to mesenchymal transition in fibroblastic cultures derived from RPE; assay type: cell-based, human; conditions: 10 mM nicotinamide, media changed 3 times a week; micrograph at 8 weeks
# Method: Epithelial to mesenchymal transition (EMT) was determined in fibroblastic cultures as follows: cells were plated 30,000 cells per 1 cm^2 tissue culture plate in DMEM/F12 with 5% FBS with the addition of 10 ng/ml TGFβ and 10 ng/ml TNFα to induce epithelial to mesenchymal transition (EMT). The extent of EMT was determined by the morphologic changes and immunohistochemical stains described above. Epithelial cells were plated at 30,000 cells/cm^2 and cultured until confluent (left image), after which 10 mM nicotinamide was added to the media, which was changed 3 times a week for 8 weeks (FIG. 10). The swirling fibroblastic morphology seen prior to addition of nicotinamide seen at the ‘3 week’ stage indicate the RPE cells have undergone EMT, losing their cobblestone morphology.
# [4] = test system: RPE cells; experiment: RPE cell proliferation assay (Ki67 immunostaining, cell number); assay type: cell-based, human; conditions: 10 mM nicotinamide; 5 days in DMEM/F12, 5% FBS
# From the text: (§1) Primary adult RPE cells were obtained from cadaveric human eyes under IRB-approved protocols, within 36-hours of the time of death. The anterior half of the eye was removed followed by the vitreous, and retina, isolating the posterior eyecup with the RPE/Bruch's membrane/choroid complex intact (as described in Blenkinsop T A, et al. The culture and maintenance of functional retinal pigment epithelial monolayers from adult human eye. 2012; Salero E et al. Adult human RPE can be activated into a multipotent stem cell that produces mesenchymal derivatives. Cell Stem Cell. 2012; 10(1):88-95). […] Once the primary (passage zero) cells reached confluence (˜20 days), the FBS concentration was reduced to 5%. Then, following the protocol developed by Salero S et al., 2012 (supra), the RPE were activated to proliferate in RPE medium with 5% FBS. The expanded RPE cells were plated at 30,000 cells per well in a 24-well plate and cultured in DMEM/F12, 5% FBS. Proliferation rates were measured by manual and/or automated counting of cell number as a function of time.
# Cells were fixed with 4% paraformaldehyde for 15 minutes, permeabilized with 0.2% Triton in PBS, blocked with 1% BSA for 30 minutes. Primary antibodies were used at 1:100 dilution in PBS. […]
# RPE cells were plated at 30,000 cells per well in a 24 well plate and cultured for 5 days in DMEM/F12, 5% FBS and cell proliferation was measured.
# [5] = test system: RPE cells; experiment: Dose response for prevention of epithelial to mesenchymal transition, SNAIL staining read-out; assay type: cell-based, human; conditions: all concentrations: 10 μM, 100 μM, 1 mM or 10 mM nicotinamide; 5 days
# Method: Cells were fixed with 4% paraformaldehyde for 15 minutes, permeabilized with 0.2% Triton in PBS, blocked with 1% BSA for 30 minutes. Primary antibodies were used at 1:100 dilution in PBS. The corresponding Alexafluor 647 secondary antibodies were used for the respective primary antibody and imaged on a Zeiss Observer.D1 fluorescent microscope. A dose response curve for the effect of nicotinamide on the prevention of epithelial to mesenchymal transition was determined using SNAIL expression as a read-out. RPE cells were cultured at 30,000 cells/well in a 24 well plate and cultured for 5 days in the presence of media containing 10 μM, 100 μM, 1 mM or 10 mM nicotinamide or control (no nicotinamide). The media was changed 3 times, and replaced with media containing the same concentration of nicotinamide, after which the cells were fixed and stained with fluorescently-labeled anti-SNAIL antibody. At all concentrations, SNAIL staining was decreased by application of nicotinamide.
# [6] = test system: adult human RPE cells; experiment: Gene expression analysis by real time PCR of RPE and mesenchymal markers; assay type: cell-based; conditions: 10 mM nicotinamide, relative to control
# [7] = test system: Adult human RPE; experiment: Transepithelial resistance (TER) of RPE on transwells; assay type: cell-based; conditions: measured weekly for one month; presence vs absence of nicotinamide
# Method: The transepithelial resistance (TER) is measured during and after treatment of hRPE cells cultured in 12-well 0.4 μm transwell inserts using the EVOM2 World Precision Instruments Volt Ohm Meter protocol. Resistance is measured in Ω-cm^2 and recorded prior to treatment to confirm that all wells are at approximately the same TER. The TER of a cell-free transwell insert of ˜110 Ω-cm^2 is subtracted to obtain the resistance of the cellular epithelium. TER is measured in each well after treatment to assess the change caused by nicotinamide. Adult human RPE were plated on semi-permeable polyester transwells and transepithelial resistance was measured weekly for one month.
# [8] = test system: RPE cells; experiment: RPE morphology in vitro by light microscopy; assay type: cell-based, human; conditions: 10 mM nicotinamide vs no nicotinamide
# From the text: as §1
# Cultures were imaged at 32× on a Zeiss Observer.D1 fluorescent microscope.
# Cultured RPE cells were analyzed by light microscopy.
structure (smiles),measurement,setting,value
"NC(=O)c1cccnc1 [nicotinamide, Nicotinamide]",TBHP-induced TIMP3 expression relative to day 0,[1],suppressed
same,pattern of ZO-1 expression,[2]; 10 mM nicotinamide vs control RPE cells,localized expression of tight junction protein ZO-1 peripherally around the cell borders
same,ZO1 staining (junctional marker),[2]; 10 mM nicotinamide vs no nicotinamide,high levels of ZO1 staining
same,cell morphology after EMT (reversal of EMT),[3],revert to their physiologic cobblestone morphology
same,immunostaining for the cell proliferation marker Ki67,[4],decreased immunostaining
same,total cell number,[4],decrease in the total cell number
same,SNAIL staining,[5],decreased
same,MITF mRNA expression (RPE marker),[6],increased
same,RPE65 mRNA expression (RPE marker),[6],increased
same,SLUG mRNA expression (mesenchymal marker),[6],decreased
same,SNAIL mRNA expression (mesenchymal marker),[6],decreased
same,TWIST mRNA expression (mesenchymal marker),[6],decreased
same,transepithelial resistance,[7],increased over time
same,RPE cell morphology,[8],maintained their characteristic cobblestone morphology
